What was measured:
K. pneumoniae 11006 = assay: MIC, Agar Dilution Method; format: cell-based; conditions: strain 11006 (uncharacterized-ESBL clinical strain); inhibitor 1 μg/mL
Protocol: (§1) The novel compounds were tested for the in vitro antibacterial activities by the Agar Dilution Method as specified in documents published by NCCLS, now CLSI, USA. (National Committee for Clinical Laboratory Standards (NCCLS). 2003. Approved standard M7-A6. NCCLS, Villanova, Pa.).
(§2) Tazo was also dissolved in same buffer to get a solution of, e.g., 1 mg/mL. Novel penam derivatives described herein were dissolved in water to get a solution of, e.g., 1 mg/mL.
(§3) The novel compounds and Tazo were also tested individually. The bacterial inoculum was prepared by picking 3 to 5 well-isolated bacterial colonies with the same morphological appearance from an 18-24 h old culture and adjusting the turbidity of the saline suspension to 0.5 McFarland Turbidity Standard equivalent to a bacterial population of 1.5×10^8 colony forming units (CFU) per mL of suspension. The suspension was diluted 1:10 in saline (i.e. 0.5 mL suspension+4.5 mL saline) to get a bacterial population of 1.5×10^7 CFU/mL as inoculum. […] The inoculated petridishes were incubated at 35° C. in an ambient atmosphere for 16-20 h.

K. pneumoniae 11009 = assay: MIC, Agar Dilution Method; format: cell-based; conditions: strain 11009 (uncharacterized-ESBL clinical strain); inhibitor 1 μg/mL
Protocol: as §1, §2, §3

P. aeruginosa 15020 = assay: MIC, Agar Dilution Method; format: cell-based; conditions: inhibitor 1 μg/mL
Protocol: as §1, §2, §3

[1] = system: K. pneumoniae ATCC 700603; assay: MIC, Agar Dilution Method; format: cell-based; conditions: for MIC of Piperacillin with different concentrations of Tazo or compound of Example 1: K. pneumoniae 700603, SHV-18
Protocol: as §1, §2, §3

E. cloacae 11801 = assay: MIC, Agar Dilution Method; format: cell-based; conditions: inhibitor 1 μg/mL
Protocol: as §1, §2, §3

E. coli MRO 10007 = assay: MIC, Agar Dilution Method; format: cell-based; conditions: strain 10007 (uncharacterized-ESBL clinical strain); inhibitor 1 μg/mL
Protocol: as §1, §2, §3

P. aeruginosa 15019 = assay: MIC, Agar Dilution Method; format: cell-based; conditions: inhibitor 1 μg/mL
Protocol: as §1, §2, §3

P. aeruginosa ATCC 27853 = assay: MIC, Agar Dilution Method; format: cell-based; conditions: inhibitor 1 μg/mL
Protocol: as §1, §2, §3

C. sedlakii 12303 = assay: MIC, Agar Dilution Method; format: cell-based; conditions: inhibitor 1 μg/mL
Protocol: as §1, §2, §3

M. morganii 13702 = assay: MIC, Agar Dilution Method; format: cell-based; conditions: inhibitor 1 μg/mL
Protocol: as §1, §2, §3

E. coli MRO 10006 = assay: MIC, Agar Dilution Method; format: cell-based; conditions: strain 10006 (uncharacterized-ESBL clinical strain); inhibitor 1 μg/mL
Protocol: as §1, §2, §3

E. coli 10003 = assay: MIC, Agar Dilution Method; format: cell-based; conditions: inhibitor 1 μg/mL
Protocol: as §1, §2, §3

E. coli 10004 = assay: MIC, Agar Dilution Method; format: cell-based; conditions: inhibitor 1 μg/mL
Protocol: as §1, §2, §3

K. pneumoniae 11012 = assay: MIC, Agar Dilution Method; format: cell-based; conditions: inhibitor 1 μg/mL
Protocol: as §1, §2, §3

K. pneumoniae MRO 11008 = assay: MIC, Agar Dilution Method; format: cell-based; conditions: strain 11008 (uncharacterized-ESBL clinical strain); inhibitor 1 μg/mL
Protocol: as §1, §2, §3

E. coli 10001 = assay: MIC, Agar Dilution Method; format: cell-based; conditions: strain 10001 (uncharacterized-ESBL clinical strain); inhibitor 1 μg/mL
Protocol: as §1, §2, §3

K. pneumoniae MRO 11007 = assay: MIC, Agar Dilution Method; format: cell-based; conditions: strain 11007 (uncharacterized-ESBL clinical strain); inhibitor 1 μg/mL
Protocol: as §1, §2, §3

M. morganii 13701 = assay: MIC, Agar Dilution Method; format: cell-based; conditions: inhibitor 1 μg/mL
Protocol: as §1, §2, §3

K. pneumoniae 11010 = assay: MIC, Agar Dilution Method; format: cell-based; conditions: inhibitor 1 μg/mL
Protocol: as §1, §2, §3

P. aeruginosa 15021 = assay: MIC, Agar Dilution Method; format: cell-based; conditions: inhibitor 1 μg/mL
Protocol: as §1, §2, §3

S. odonifera 13801 = assay: MIC, Agar Dilution Method; format: cell-based; conditions: inhibitor 1 μg/mL
Protocol: as §1, §2, §3

E. cloacae 11802 = assay: MIC, Agar Dilution Method; format: cell-based; conditions: inhibitor 1 μg/mL
Protocol: as §1, §2, §3

C. freundii 12301 = assay: MIC, Agar Dilution Method; format: cell-based; conditions: inhibitor 1 μg/mL
Protocol: as §1, §2, §3

E. coli MRO 10002 = assay: MIC, Agar Dilution Method; format: cell-based; conditions: strain 10002 (uncharacterized-ESBL clinical strain); inhibitor 1 μg/mL
Protocol: as §1, §2, §3

E. coli ATCC 25922 = assay: MIC, Agar Dilution Method; format: cell-based; conditions: inhibitor 1 μg/mL
Protocol: as §1, §2, §3

[2] = system: M. catarrhalis ATCC 43627; assay: MIC, Agar Dilution Method; format: cell-based; conditions: inhibitor 1 μg/mL
Protocol: as §1, §2, §3

[3] = system: M. catarrhalis ATCC 43617; assay: MIC, Agar Dilution Method; format: cell-based; conditions: inhibitor 1 μg/mL
Protocol: as §1, §2, §3

A. baumanii 14501 = assay: MIC, Agar Dilution Method; format: cell-based; conditions: inhibitor 1 μg/mL
Protocol: as §1, §2, §3

[4] = system: ESBLs types SHV-3 and SHV-4; conditions: Bryson and Brogden, 1994; cited from earlier work
A. baumani MRO 14512 = assay: MIC, Agar Dilution Method, resistant clinical isolate; format: cell-based; conditions: Pip + 4 μg/mL inhibitor
Protocol: as §1, §2, §3

A. baumani MRO 14515 = assay: as above; format: cell-based; conditions: Pip + 4 μg/mL inhibitor
Protocol: as §1, §2, §3

A. baumani MRO 14514 = assay: as above; format: cell-based; conditions: Pip + 4 μg/mL inhibitor
Protocol: as §1, §2, §3

E. coli MRO 10135 = assay: as above; format: cell-based; conditions: Pip + 4 μg/mL inhibitor
Protocol: as §1, §2, §3

[5] = Minimum bactericidal studies, broth macrodilution; format: cell-based
Protocol: Minimum bactericidal studies were performed by broth macrodilution technique as described by NCCLS.

[6] = Intravenous pharmacokinetics in mice; format: in vivo, Swiss mice; conditions: mouse, in vivo, iv
From the text: Blood samples were collected at different time points. These samples were processed and analyzed by HPLC.

For `C[C@]1(Cn2ccnn2)[C@H](C(=O)O)N2C(=O)C[C@H]2S1(=O)=O` [Tazo], the “MIC of Piperacillin with Tazo or compounds described herein at 1 μg/mL” value (from here on “MIC of Piperacillin … at 1 μg/mL”) (K. pneumoniae 11006) was 32 µg/mL, the “MIC of Piperacillin … at 1 μg/mL” value (K. pneumoniae 11009) was 16 µg/mL and the “MIC of Piperacillin … at 1 μg/mL” value (P. aeruginosa 15020) was 64 µg/mL. The “MIC of Piperacillin with different concentrations of Tazo or compound of Example 1” value ([1]; inhibitor 1 μg/mL) was 16 µg/mL, the “MIC of Piperacillin with different concentrations of Tazo or compound of Example 1” value ([1]; inhibitor 2 μg/mL) was 16 µg/mL and the “MIC of Piperacillin with different concentrations of Tazo or compound of Example 1” value ([1]; inhibitor 4 μg/mL) was 16 µg/mL. For the same molecule, the “MIC of Piperacillin … at 1 μg/mL” value ([1]; K. pneumoniae ATCC 700603, inhibitor 1 μg/mL) was 16 µg/mL, the “MIC of Piperacillin … at 1 μg/mL” value (E. cloacae 11801) was 2 µg/mL and the “MIC of Piperacillin … at 1 μg/mL” value (E. coli MRO 10007) was 1 µg/mL. For the same molecule, the “MIC of Piperacillin … at 1 μg/mL” value (P. aeruginosa 15019) was 32 µg/mL, the “MIC of Piperacillin … at 1 μg/mL” value (P. aeruginosa ATCC 27853) was 4 µg/mL and the “MIC of Piperacillin … at 1 μg/mL” value (C. sedlakii 12303) was 1 µg/mL. The “MIC of Piperacillin … at 1 μg/mL” value (M. morganii 13702) was less than 0.25 µg/mL, the “MIC of Piperacillin … at 1 μg/mL” value (E. coli MRO 10006) was 2 µg/mL and the “MIC of Piperacillin … at 1 μg/mL” value (E. coli 10003) was 32 µg/mL. For the same molecule, the “MIC of Piperacillin … at 1 μg/mL” value (E. coli 10004) was 16 µg/mL, the “MIC of Piperacillin … at 1 μg/mL” value (K. pneumoniae 11012) was 2 µg/mL and the “MIC of Piperacillin … at 1 μg/mL” value (K. pneumoniae MRO 11008) was greater than 128 µg/mL. The “MIC of Piperacillin … at 1 μg/mL” value (E. coli 10001) was 16 µg/mL, the “MIC of Piperacillin … at 1 μg/mL” value (K. pneumoniae MRO 11007) was greater than 128 µg/mL and the “MIC of Piperacillin … at 1 μg/mL” value (M. morganii 13701) was 16 µg/mL. For the same molecule, the “MIC of Piperacillin … at 1 μg/mL” value (K. pneumoniae 11010) was 2 µg/mL, the “MIC of Piperacillin … at 1 μg/mL” value (P. aeruginosa 15021) was 32 µg/mL and the “MIC of Piperacillin … at 1 μg/mL” value (S. odonifera 13801) was 2 µg/mL. The “MIC of Piperacillin … at 1 μg/mL” value (E. cloacae 11802) was 64 µg/mL, the “MIC of Piperacillin … at 1 μg/mL” value (C. freundii 12301) was 16 µg/mL and the “MIC of Piperacillin … at 1 μg/mL” value (E. coli MRO 10002) was 128 µg/mL. For the same molecule, the “MIC of Piperacillin … at 1 μg/mL” value (E. coli ATCC 25922) was 2 µg/mL, the “MIC of Piperacillin … at 1 μg/mL” value [2] was less than 0.25 µg/mL and the “MIC of Piperacillin … at 1 μg/mL” value [3] was less than 0.25 µg/mL. For the same molecule, the “MIC of Piperacillin … at 1 μg/mL” value (A. baumanii 14501) was 8 µg/mL, the “activity against ESBLs types SHV-3 and SHV-4” value [4] was “inactive” and the “MIC of Piperacillin in combination with 4 μg/mL inhibitor” value (from here on “MIC … with 4 μg/mL inhibitor”) (A. baumani MRO 14512) was 64 µg/mL. The “MIC … with 4 μg/mL inhibitor” value (A. baumani MRO 14515) was 128 µg/mL, the “MIC … with 4 μg/mL inhibitor” value (A. baumani MRO 14514) was 64 µg/mL and the “MIC … with 4 μg/mL inhibitor” value (E. coli MRO 10135) was greater than 128 µg/mL. The “Minimum bactericidal concentration study, Piperacillin in combination with inhibitor” value [5] was “bacteriostatic” and the Elimination half-life [6] was 16.1 min.

Reference: patent publication US20090093423A2, “NOVEL 2-SUBSTITUTED METHYL PENAM DERIVATIVES” (Orchid Chemicals and Pharmaceuticals Limited, priority 2006, published 2009)
